This passage reports IC50 and viability, T/C results from PubChem BioAssay AID1918994 (Molecular Pharmacology Branch, DTP, NCI, 2023).

“And” between values parts separate entries of the source, which are not always exact repeats. Equal values may be shown once.

The assay relates to 292921-168-R-J2-PDC complex spheroid growth. The assay can be described thus: Anticancer human tumor 292921-168-R-J2-PDC patient-derived pancreatic carcinoma cell line growth inhibition [AhR]. The note with it: for viability, T/C: stronger effect = lower value. The procedure, abridged:
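Spheroids combined tumor cells with HUVEC endothelial cells and human MSCs as stroma. AhR antagonists were paired with standard or investigational drugs, each dosed in half-log steps down from near clinical Cmax, or from 10 microM where Cmax was unknown.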

[1] abbreviates: curve of first compound, second compound 0.1 µM.
The mark [2] stands for this setting: curve of first compound, second compound 0.316 µM.
The mark [3] stands for this setting: curve of first compound, second compound 1 µM.
Setting [4] is: curve of first compound, second compound 3.16 µM.
Where [5] appears, read: curve of first compound, second compound 10 µM.
Setting [6] is: second compound 0.1 µM, first compound 0.0316 µM.
The mark [7] stands for this setting: second compound 0.1 µM, first compound 0.1 µM.
Where [8] appears, read: second compound 0.1 µM, first compound 0.316 µM.
Where [9] appears, read: second compound 0.1 µM, first compound 1 µM.
Where [10] appears, read: second compound 0.1 µM, first compound 3.16 µM.
The mark [11] stands for this setting: second compound 0.1 µM, first compound 10 µM.
[12] abbreviates: second compound 0.316 µM, first compound 0.0316 µM.
Where [13] appears, read: second compound 0.316 µM, first compound 0.1 µM.
[14] abbreviates: second compound 0.316 µM, first compound 0.316 µM.
[15] abbreviates: second compound 0.316 µM, first compound 1 µM.
[16] abbreviates: second compound 0.316 µM, first compound 3.16 µM.
The mark [17] stands for this setting: second compound 0.316 µM, first compound 10 µM.
[18] abbreviates: second compound 1 µM, first compound 0.0316 µM.
Setting [19] is: second compound 1 µM, first compound 0.1 µM.
[20] abbreviates: second compound 1 µM, first compound 0.316 µM.
[21] abbreviates: second compound 1 µM, first compound 1 µM.
Where [22] appears, read: second compound 1 µM, first compound 3.16 µM.
Where [23] appears, read: second compound 1 µM, first compound 10 µM.
The mark [24] stands for this setting: second compound 3.16 µM, first compound 0.0316 µM.
Setting [25] is: second compound 3.16 µM, first compound 0.1 µM.
[26] abbreviates: second compound 3.16 µM, first compound 0.316 µM.
The mark [27] stands for this setting: second compound 3.16 µM, first compound 1 µM.
Where [28] appears, read: second compound 3.16 µM, first compound 3.16 µM.
The mark [29] stands for this setting: second compound 3.16 µM, first compound 10 µM.
The mark [30] stands for this setting: second compound 10 µM, first compound 0.0316 µM.
The mark [31] stands for this setting: second compound 10 µM, first compound 0.1 µM.
Where [32] appears, read: second compound 10 µM, first compound 0.316 µM.
[33] abbreviates: second compound 10 µM, first compound 1 µM.
[34] abbreviates: second compound 10 µM, first compound 3.16 µM.
The mark [35] stands for this setting: second compound 10 µM, first compound 10 µM.
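Also: spheroids exposed to compounds for seven days after three days of growth.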

In the case of `O=C(C=Cc1cccc(S(=O)(=O)Nc2ccccc2)c1)NO` + Cc1ccccc1N=Nc1ccc(NC(=O)c2ccnn2C)c(C)c1, the IC50 (commonly the concentration that inhibits the measured activity by half) under setting [1] worked out at 579 nM; the IC50 under setting [2] stood at 697 nM; the IC50 under setting [3] was found to be 520 nM; the IC50 under setting [4] came out at 285 nM; the IC50 under setting [5] is under 31.6 nM. Also, the viability, T/C (in general, the result in the treated group divided by that in the control group, in per cent) was 69% under setting [6]; 64% under setting [7]; 52% under setting [8]; 39.7% under setting [9]; 38.2% under setting [10]; 3.35% under setting [11]. For the same compound, the viability, T/C was 74.9% under setting [12]; 68.2% under setting [13]; 55.4% under setting [14]; 43.2% under setting [15]; 36.9% under setting [16]; 6.05% under setting [17]. Moreover, the viability, T/C by setting is: under setting [18], 68.8%; under setting [19], 59.1%; under setting [20], 54.8%; under setting [21], 38.8%; under setting [22], 36.1%; under setting [23], 3.74%. In addition, the viability, T/C is, setting by setting: under setting [24], 65.8%; under setting [25], 49%; under setting [26], 49.1%; under setting [27], 34.9%; under setting [28], 35.2%; under setting [29], 2.03%. Moreover, the viability, T/C reads like this: under setting [30], 44.2%; under setting [31], 41.6%; under setting [32], 36.9%; under setting [33], 33.8%; under setting [34], 29.1%; under setting [35], 4.17%.
For the compound `O=C(c1cc(Cc2n[nH]c(=O)c3ccccc23)ccc1F)N1CCN(C(=O)C2CC2)CC1`, the viability, T/C is, setting by setting: (compound 0.0316 µM) 110% and 97.3% and 99.3%; (compound 0.1 µM) 110% and 100% and 95.6%; (compound 0.316 µM) 95.5% and 93.5% and 84.8%; (compound 1 µM) 98.6% and 97.8% and 91.6%; (compound 3.16 µM) 102% and 92.5% and 83.3%; (compound 10 µM) 80% and 74.5% and 68%. In addition, the 50% inhibitory concentration (IC50) (curve of compound) is over 10000 nM.
For `CC(C)c1c(-c2ccccc2)nc2c(C#N)c[nH]n2c1=O` + Cc1ccccc1N=Nc1ccc(NC(=O)c2ccnn2C)c(C)c1, the IC50 under setting [1] was over 10000 nM; the IC50 under setting [2] was over 10000 nM; the IC50 under setting [3] is over 10000 nM; the IC50 under setting [4] is over 10000 nM; the 50% inhibitory concentration (IC50) under setting [5] was over 10000 nM. Further, the viability, T/C under setting [6] is 86.5%; the viability, T/C under setting [7] was 86%; the viability, T/C under setting [8] is 91.9%; the viability, T/C under setting [9] was 88.7%; the viability, T/C under setting [10] is 89.8%; the viability, T/C under setting [11] was 96.5%. Moreover, the viability, T/C by setting is: under setting [12], 79.3%; under setting [13], 85.2%; under setting [14], 86.1%; under setting [15], 81.2%; under setting [16], 94%; under setting [17], 85.9%. In addition, the viability, T/C is 84.2% under setting [18]; 86.2% under setting [19]; 80.8% under setting [20]; 87% under setting [21]; 83.6% under setting [22]; 81.8% under setting [23]. For the same compound, the viability, T/C is, setting by setting: under setting [24], 78.6%; under setting [25], 72.3%; under setting [26], 78.8%; under setting [27], 76.8%; under setting [28], 74%; under setting [29], 65.8%. For the same compound, the viability, T/C runs as follows: under setting [30], 58.1%; under setting [31], 61.2%; under setting [32], 58.6%; under setting [33], 63.9%; under setting [34], 65%; under setting [35], 50.3%.
As for `CC1COCCN1c1cc(-c2ccnn2C)c2ccnc(-c3ccn[nH]3)c2n1` (stereo unspecified), the viability, T/C (compound 0.00316 µM) was 99.6% and 103% and 96.5%; the viability, T/C (compound 0.01 µM) is 90.4% and 97.9% and 92.8%; the viability, T/C (compound 0.0316 µM) is 65.1% and 66.1% and 56.9%; the viability, T/C (compound 0.1 µM) is 36.3% and 32.1% and 32.4%; the viability, T/C (compound 0.316 µM) was 23.2% and 19.6% and 21.7%; the viability, T/C (compound 1 µM) was 19.2% and 17.7% and 17.8%. Moreover, the IC50 (curve of compound) is 58 nM and 54.7 nM and 45.7 nM.
In the case of `Cn1ncnc1C1c2n[nH]c(=O)c3cc(F)cc(c23)NC1c1ccc(F)cc1` (stereo unspecified) + Cc1ccccc1N=Nc1ccc(NC(=O)c2ccnn2C)c(C)c1, the 50% inhibitory concentration (IC50) was over 100 nM under setting [1]; over 100 nM under setting [2]; over 100 nM under setting [3]; over 100 nM under setting [4]; over 100 nM under setting [5]. Also, the viability, T/C is 96.1% (second compound 0.1 µM, first compound 0.000316 µM); 83% (second compound 0.1 µM, first compound 0.001 µM); 83.2% (second compound 0.1 µM, first compound 0.00316 µM); 85.7% (second compound 0.1 µM, first compound 0.01 µM); 87.8% under setting [6]; 82.6% under setting [7]. The viability, T/C (second compound 0.316 µM, first compound 0.000316 µM) is 90.9%; the viability, T/C (second compound 0.316 µM, first compound 0.001 µM) is 76.6%; the viability, T/C (second compound 0.316 µM, first compound 0.00316 µM) was 86.4%; the viability, T/C (second compound 0.316 µM, first compound 0.01 µM) was 74.8%; the viability, T/C under setting [12] was 73.8%; the viability, T/C under setting [13] is 86.2%. Moreover, the viability, T/C was 78.6% (second compound 1 µM, first compound 0.000316 µM); 81% (second compound 1 µM, first compound 0.001 µM); 80.3% (second compound 1 µM, first compound 0.00316 µM); 81.3% (second compound 1 µM, first compound 0.01 µM); 87.8% under setting [18]; 74.1% under setting [19]. Further, the viability, T/C is, setting by setting: (second compound 3.16 µM, first compound 0.000316 µM) 80.9%; (second compound 3.16 µM, first compound 0.001 µM) 76.2%; (second compound 3.16 µM, first compound 0.00316 µM) 76.3%; (second compound 3.16 µM, first compound 0.01 µM) 75.1%; under setting [24], 72.5%; under setting [25], 59.6%. For the same compound, the viability, T/C is 64% (second compound 10 µM, first compound 0.000316 µM); 68.5% (second compound 10 µM, first compound 0.001 µM); 51.8% (second compound 10 µM, first compound 0.00316 µM); 61.7% (second compound 10 µM, first compound 0.01 µM); 53.3% under setting [30]; 52.8% under setting [31].
For `Nc1ccn(C2OC(CO)C(O)C2(F)F)c(=O)n1` (stereo unspecified), the viability, T/C reads like this: (compound 0.0316 µM) 11.7% and 10.6% and 9.71%; (compound 0.1 µM) 9.82% and 10.9% and 7.67%; (compound 0.316 µM) 9.66% and 9.32% and 10.4%; (compound 1 µM) 10.1% and 11.1% and 8.88%; (compound 3.16 µM) 9.41% and 11.4% and 8.79%; (compound 10 µM) 7.29% and 6.09% and 6.67%. Besides, for the setting “curve of compound”, the IC50 was under 31.6 nM.
